≈ marks a conversion by molar mass, not a printed value. Calls of active or inactive are those of the source. The rule behind the calls is not given here.
Key:
[1] = tested on: Staphylococcus aureus; test: Antibacterial activity against methicillin resistant Staphylococcus aureus USA400 assessed as reduction in bacterial cell growth incubated for 18 to 20 hrs by broth microdilution method; format: functional
[2] = tested on: Acinetobacter baumannii; test: Antibacterial activity against Acinetobacter baumannii ATCC 19606 assessed as reduction in bacterial cell growth incubated for 18 to 20 hrs by broth microdilution method; format: functional
[3] = tested on: Escherichia coli; test: Bactericidal activity against Escherichia coli JW55031 harboring deltatolC mutant assessed as reduction in bacterial cell growth incubated for 18 to 20 hrs followed by re-plating on tryptic soy agar plates at 37 degC for 18 hrs by broth microdilution assay; format: functional
[4] = tested on: Streptococcus pneumoniae; test: Bactericidal activity against Methicillin resistant Streptococcus pneumoniae ATCC 700677 assessed as reduction in bacterial cell growth incubated for 18 to 20 hrs followed by re-plating on tryptic soy agar plates at 37 degC for 18 hrs by broth microdilution assay; format: functional
[5] = tested on: Staphylococcus aureus; test: Bactericidal activity against methicillin-resistant Staphylococcus aureus USA300 assessed as reduction in bacterial cell growth incubated for 18 to 20 hrs followed by re-plating on tryptic soy agar plates at 37 degC for 18 hrs by broth microdilution assay; format: functional
[6] = tested on: Enterococcus faecium; test: Antibacterial activity against vancomycin resistant Enterococcus faecium ATCC 700221 assessed as reduction in bacterial cell growth incubated for 18 to 20 hrs by broth microdilution method; format: functional
[7] = tested on: Listeria monocytogenes; test: Bactericidal activity against Listeria monocytogenes ATCC 19111 assessed as reduction in bacterial cell growth incubated for 18 to 20 hrs followed by re-plating on tryptic soy agar plates at 37 degC for 18 hrs by broth microdilution assay; format: functional
[8] = tested on: Escherichia coli; test: BActericidal activity against Escherichia coli BW25113 assessed as reduction in bacterial cell growth incubated for 18 to 20 hrs followed by re-plating on tryptic soy agar plates at 37 degC for 18 hrs by broth microdilution assay; format: functional
[9] = tested on: Streptococcus pneumoniae; test: Antibacterial activity against Cephalosporin resistant Streptococcus pneumoniae ATCC 51916 assessed as reduction in bacterial cell growth incubated for 18 to 20 hrs by broth microdilution method; format: functional
[10] = tested on: Pseudomonas aeruginosa; test: Antibacterial activity against Pseudomonas aeruginosa ATCC 15442 assessed as reduction in bacterial cell growth incubated for 18 to 20 hrs by broth microdilution method; format: functional
[11] = tested on: Pseudomonas aeruginosa; test: Bactericidal activity against Pseudomonas aeruginosa ATCC 15442 assessed as reduction in bacterial cell growth incubated for 18 to 20 hrs followed by re-plating on tryptic soy agar plates at 37 degC for 18 hrs by broth microdilution assay; format: functional
[12] = tested on: Klebsiella pneumoniae; test: Antibacterial activity against Klebsiella pneumoniae BAA-1706 assessed as reduction in bacterial cell growth incubated for 18 to 20 hrs by broth microdilution method; format: functional
[13] = tested on: Staphylococcus epidermidis; test: Bactericidal activity against methicillin resistant Staphylococcus epidermidis NRS101 assessed as reduction in bacterial cell growth incubated for 18 to 20 hrs followed by re-plating on tryptic soy agar plates at 37 degC for 18 hrs by broth microdilution assay; format: functional
[14] = tested on: Staphylococcus aureus; test: Bactericidal activity against Staphylococcus aureus NRS107 assessed as reduction in bacterial cell growth incubated for 18 to 20 hrs followed by re-plating on tryptic soy agar plates at 37 degC for 18 hrs by broth microdilution assay; format: functional
[15] = tested on: Staphylococcus aureus; test: Bactericidal activity against methicillin resistant Staphylococcus aureus NRS119 assessed as reduction in bacterial cell growth incubated for 18 to 20 hrs followed by re-plating on tryptic soy agar plates at 37 degC for 18 hrs by broth microdilution assay; format: functional
[16] = tested on: Staphylococcus aureus; test: Bactericidal activity against vancomycin resistant Staphylococcus aureus VRS12 assessed as reduction in bacterial cell growth incubated for 18 to 20 hrs followed by re-plating on tryptic soy agar plates at 37 degC for 18 hrs by broth microdilution assay; format: functional
[17] = tested on: Staphylococcus epidermidis; test: Antibacterial activity against methicillin resistant Staphylococcus epidermidis NRS101 assessed as reduction in bacterial cell growth incubated for 18 to 20 hrs by broth microdilution method; format: functional
[18] = tested on: Staphylococcus aureus; test: Antibacterial activity against Staphylococcus aureus ATCC 6538 assessed as reduction in bacterial cell growth incubated for 18 to 20 hrs by broth microdilution method; format: functional
[19] = tested on: Escherichia coli; test: Antibacterial activity against Escherichia coli JW55031 harboring deltatolC mutant assessed as reduction in bacterial cell growth incubated for 18 to 20 hrs by broth microdilution method; format: functional
[20] = tested on: Staphylococcus aureus; test: Bactericidal activity against Staphylococcus aureus ATCC 6538 assessed as reduction in bacterial cell growth incubated for 18 to 20 hrs followed by re-plating on tryptic soy agar plates at 37 degC for 18 hrs by broth microdilution assay; format: functional
[21] = tested on: Staphylococcus aureus; test: Antibacterial activity against methicillin-resistant Staphylococcus aureus USA300 assessed as reduction in bacterial cell growth incubated for 18 to 20 hrs by broth microdilution method; format: functional
[22] = tested on: Staphylococcus aureus; test: Antibacterial activity against vancomycin resistant Staphylococcus aureus VRS12 assessed as reduction in bacterial cell growth incubated for 18 to 20 hrs by broth microdilution method; format: functional
[23] = tested on: Escherichia coli; test: Antibacterial activity against Escherichia coli BW25113 assessed as reduction in bacterial cell growth incubated for 18 to 20 hrs by broth microdilution method; format: functional
[24] = tested on: Staphylococcus aureus; test: Antibacterial activity against vancomycin resistant Staphylococcus aureus VRS11a assessed as reduction in bacterial cell growth incubated for 18 to 20 hrs by broth microdilution method; format: functional
[25] = Solubility of compound in PBS after 2 hrs by turbidity based absorbance analysis; format: physicochemical
[26] = tested on: Listeria monocytogenes; test: Antibacterial activity against Listeria monocytogenes ATCC 19111 assessed as reduction in bacterial cell growth incubated for 18 to 20 hrs by broth microdilution method; format: functional
[27] = tested on: Staphylococcus aureus; test: Antibacterial activity against methicillin resistant Staphylococcus aureus NRS119 assessed as reduction in bacterial cell growth incubated for 18 to 20 hrs by broth microdilution method; format: functional
[28] = tested on: Streptococcus pneumoniae; test: Bactericidal activity against Cephalosporin resistant Streptococcus pneumoniae ATCC 51916 assessed as reduction in bacterial cell growth incubated for 18 to 20 hrs followed by re-plating on tryptic soy agar plates at 37 degC for 18 hrs by broth microdilution assay; format: functional
[29] = tested on: Streptococcus pneumoniae; test: Antibacterial activity against Methicillin resistant Streptococcus pneumoniae ATCC 700677 assessed as reduction in bacterial cell growth incubated for 18 to 20 hrs by broth microdilution method; format: functional
[30] = tested on: Staphylococcus aureus; test: Antibacterial activity against Staphylococcus aureus NRS107 assessed as reduction in bacterial cell growth incubated for 18 to 20 hrs by broth microdilution method; format: functional
[31] = tested on: Enterococcus faecium; test: Bactericidal activity against vancomycin resistant Enterococcus faecium ATCC 700221 assessed as reduction in bacterial cell growth incubated for 18 to 20 hrs followed by re-plating on tryptic soy agar plates at 37 degC for 18 hrs by broth microdilution assay; format: functional
[32] = tested on: Staphylococcus aureus; test: Antibacterial activity against vancomycin resistant Staphylococcus aureus VRS10 assessed as reduction in bacterial cell growth incubated for 18 to 20 hrs by broth microdilution method; format: functional
[33] = tested on: Acinetobacter baumannii; test: Bactericidal activity against Acinetobacter baumannii ATCC 19606 assessed as reduction in bacterial cell growth incubated for 18 to 20 hrs followed by re-plating on tryptic soy agar plates at 37 degC for 18 hrs by broth microdilution assay; format: functional
[34] = tested on: Staphylococcus aureus; test: Antibacterial activity against intracellular methicillin resistant Staphylococcus aureus USA400 infected in mouse J774 cells assessed as log10 reduction of viable bacterial cells incubated for 24 hrs followed by re-plating on tryptic soy agar plates at 37 degC for 18 to 22 hrs by broth microdilution assay; format: functional

SMILES | MIC [1] | MIC [2] | MBC [3] | MBC [4] | MBC [5] | MIC [6] | MBC [7] | MBC [8] | MIC [9] | MIC [10] | MBC [11] | MIC [12] | MBC [13] | MBC [14] | MBC [15] | MBC [16] | MIC [17] | MIC [18] | MIC [19] | MBC [20] | other results
C/C(=N\NC(=N)N)c1sc(-c2ccc(C#CC(C)(C)O)cc2)nc1C | 2 µg/mL (≈ 5.63 µM) | 64 µg/mL (≈ 180 µM) | 16 µg/mL (≈ 45 µM) | 8 µg/mL (≈ 22.5 µM) | 16 µg/mL (≈ 45 µM) | 2 µg/mL (≈ 5.63 µM) | 8 µg/mL (≈ 22.5 µM) | > 64 µg/mL | 4 µg/mL (≈ 11.3 µM) | > 64 µg/mL | > 64 µg/mL | > 64 µg/mL | 4 µg/mL (≈ 11.3 µM) | 4 µg/mL (≈ 11.3 µM) | 4 µg/mL (≈ 11.3 µM) | 16 µg/mL (≈ 45 µM) | 4 µg/mL (≈ 11.3 µM) | 2 µg/mL (≈ 5.63 µM) | 16 µg/mL (≈ 45 µM) | 4 µg/mL (≈ 11.3 µM) | MIC [21]: 4 µg/mL (≈ 11.3 µM); MIC [22]: 4 µg/mL (≈ 11.3 µM); MIC [23]: > 64 µg/mL; MIC [24]: 1 µg/mL (≈ 2.81 µM); solubility kinetic at 2 h [25]: 320 µM (≈ 114 µg/mL); MIC [26]: 4 µg/mL (≈ 11.3 µM); MIC [27]: 2 µg/mL (≈ 5.63 µM); MBC [28]: 8 µg/mL (≈ 22.5 µM); MIC [29]: 4 µg/mL (≈ 11.3 µM); MIC [30]: 4 µg/mL (≈ 11.3 µM); MBC [31]: 4 µg/mL (≈ 11.3 µM); MIC [32]: 4 µg/mL (≈ 11.3 µM); MBC [33]: 64 µg/mL (≈ 180 µM)
C/C(=N\NC(=N)N)c1sc(-c2ccc(C#CC3(O)CCCCC3)cc2)nc1C | 4 µg/mL (≈ 10.1 µM) | 64 µg/mL (≈ 162 µM) | 32 µg/mL (≈ 80.9 µM) | 8 µg/mL (≈ 20.2 µM) | 16 µg/mL (≈ 40.5 µM) | 1 µg/mL (≈ 2.53 µM) | 8 µg/mL (≈ 20.2 µM) | > 64 µg/mL | 8 µg/mL (≈ 20.2 µM) | > 64 µg/mL | > 64 µg/mL | > 64 µg/mL | 4 µg/mL (≈ 10.1 µM) | 8 µg/mL (≈ 20.2 µM) | 4 µg/mL (≈ 10.1 µM) | 8 µg/mL (≈ 20.2 µM) | 4 µg/mL (≈ 10.1 µM) | 2 µg/mL (≈ 5.06 µM) | 32 µg/mL (≈ 80.9 µM) | 4 µg/mL (≈ 10.1 µM) | MIC [21]: 4 µg/mL (≈ 10.1 µM); MIC [22]: 4 µg/mL (≈ 10.1 µM); MIC [23]: > 64 µg/mL; MIC [24]: 1 µg/mL (≈ 2.53 µM); Activity call [34]: Active; solubility kinetic at 2 h [25]: 147 µM (≈ 58.1 µg/mL); MIC [26]: 4 µg/mL (≈ 10.1 µM); MIC [27]: 2 µg/mL (≈ 5.06 µM); MBC [28]: 8 µg/mL (≈ 20.2 µM); MIC [29]: 4 µg/mL (≈ 10.1 µM); MIC [30]: 4 µg/mL (≈ 10.1 µM); MBC [31]: 1 µg/mL (≈ 2.53 µM); MIC [32]: 2 µg/mL (≈ 5.06 µM); MBC [33]: 64 µg/mL (≈ 162 µM)

From ChEMBL document CHEMBL4393697, “Lipophilic efficient phenylthiazoles with potent undecaprenyl pyrophosphatase inhibitory activity” (Eur J Med Chem, 2019)
